Experimental data reported in patent US9655877B2, “Therapeutic methods for treating inflammation and immune system disorders” (priority 2009, dated 2017).

Legend:
Format in all cases: cell-based, murine
[1] = tested on: nitrite production in BV-2 cells; assay: LPS-induced nitrite (nitric oxide) production in BV-2 cells, Griess reagent; details: 100 ng/ml LPS, 18 hours
Procedure: Nitrite levels in the culture media were determined using Griess reagent under manufacturer's instructions (Sigma Aldrich, St. Louis, Mo.). Fresh culture media were used as blanks and the nitrite levels were determined by using a standard sodium nitrite curve.
The effect of each extract on nitric oxide production is evaluated according to the procedures illustrated as follows. Briefly, murine microglia cell line BV-2 is maintained in Dulbecco's modified Eagle's minimum essential medium (DMEM) supplemented with 10% FBS and 1% penicillin and streptomycin (Invitrogen Life Technologies, Carlsbad, Calif.) at 37° C. in a humidified atmosphere with 5% CO2 in warm air.
0.1 M cells/ml BV-2 cells are seeded in 24-well plates (0.5 ml in each well). Cells are treated with 0.05% DMSO; 0.05% DMSO and 100 ng/ml LPS; or 100 ng/ml LPS and 50 μg/ml of an LCX extract for 18 hours, respectively. The culture supernatant is collected. The nitric oxide level is measured using the Griess reagent according to standard manufacturer's instructions (Sigma Aldrich, St. Louis, Mo.), and assessed using the standard sodium nitrite curve.
The effect of senkyunolide A (Sen A) and Z-ligustilide (Z-Lig) at various concentrations on LPS-induced nitrite production is further evaluated in this Example. Briefly, 0.1 M cells/ml BV-2 cells are seeded in 24-well plates (0.5 ml in each well). Cells are treated with 0.05% DMSO; 0.05% DMSO and 100 ng/ml LPS; 50 μg/ml Sen A/Z-Lig; or 100 ng/ml LPS and Sen A/Z-Lig at a concentration of 1 μg/ml, 5 μg/ml, 10 μg/ml, 25 μg/ml, and 50 μg/ml for 18 hours, respectively. The culture supernatant is collected. The nitric oxide level is measured using the Griess reagent according to standard manufacturer's instructions (Sigma Aldrich, St. Louis, Mo.), and evaluated using the standard sodium nitrite curve.

NF-kB p65 = assay: Nuclear translocation of NF-kB p65 in LPS-stimulated BV-2 cells, Western blot; details: 50 μg/ml pretreatment 1 h, 100 ng/ml LPS 30 min
Procedure: (§1) BV-2 cells (2×10^5 cells/ml) were pretreated with either 0.05% DMSO or 50 μg/ml senkyunolide A for 1 h, followed by treatment with 100 ng/ml LPS for another 30 min. (A) Cytoplasmic proteins were extracted and analyzed by Western Blot using antibodies specific for phospho-p38, phospho-JNK, phospho-ERK 1/2 and actin. (B) Nuclear proteins were extracted and analyzed by Western Blot against NF-kB p65 and lamin B antibodies. 10^5 cells/ml BV-2 cells were first pretreated with senkyunolide A for 1 h. After induction by 100 ng/ml LPS for 30 min, the culture medium was discarded. Cytoplasmic proteins and nuclear proteins were extracted separately by buffer A and buffer C as described in our previous report^28. The cell lysates were separated by 10% SDS-polyacrylamide gel electrophoresis and transferred to a nitrocellulose membrane (Schleicher & Schuell, Germany). The cell lysates were incubated with specific antibodies (phospho-MAP kinases, Actin, NF-kB p65 and Lamin B) overnight. After three washes, the membranes were incubated with the corresponding secondary antibodies. The bands were detected using the Enhanced Chemiluminescence System (GE Healthcare, Piscataway, N.J., USA) according to the manufacturer's instructions. The NF-kB pathway plays a key role in the transcriptional regulation of inflammatory mediators. […]

TNF-α mRNA = TNF-α mRNA stability assay (actinomycin D) in BV-2 cells; details: compound 1 hour, LPS 2 hours, then 1 μg/ml actinomycin
Procedure: 10^5 BV-2 cells were first stimulated by 100 ng/ml LPS. After 2 h of LPS treatment, transcription inhibitor actinomycin D (Act D) at a concentration of 1 ug/ml was added to stop the mRNA synthesis. Total RNA was harvested at indicated time points after actinomycin D treatment (post-Act D). The level of TNF-α mRNA was measured by real-time quantitative RT-PCR. In addition, the effect of senkyunolide A on TNF-α mRNA stability is evaluated. Specifically, 10^5 cells/ml BV-2 cells are seeded in 24-well plates (0.5 ml in each well). Cells are treated with Sen A at various concentrations for 1 hour prior to the addition of LPS for another 2 hours, and further incubated with 1 μg/ml actinomycin for various time periods. Total RNA of the treated samples is isolated and subjected to real-time RT-PCR.

[2] = tested on: MAP kinases (p38, JNK, ERK 1/2); assay: Phosphorylation of MAPKs in LPS-stimulated BV-2 cells, Western blot; details: 50 μg/ml pretreatment 1 h, 100 ng/ml LPS 30 min
Procedure: as §1, with “[…] Briefly, the effect of Sen A on mitogen-activated protein kinases (MAPKs)” for “The NF-kB pathway plays a key role”, “cell signaling cascade was investigated.” for “transcriptional regulation of inflammatory mediators.”

In the case of `CCCC[C@H]1OC(=O)C2=C1CCC=C2` [senkyunolide A], the “reduction in nitrite production” value ([1]; 10 μg/ml) is reported as “approximately 4 fold”, the “reduction in nitrite production” value ([1]; 25 μg/ml) is reported as roughly 20 fold and the “effect on nitrite production” value ([1]; 50 μg/ml) is reported as “almost completely inhibits nitrite production”. The “effect on translocation of NF-kB p65 into the nucleus” value (NF-kB p65) was “did not exert an inhibitory effect”, the “effect on TNF-α mRNA stability” value (TNF-α mRNA) was “destabilizes TNF-α mRNA” and the “reduction of TNF-α mRNA half life” value (TNF-α mRNA) was 43%. The “effect on levels of phosphorylation of MAPKs (p38, JNK, ERK 1/2)” value [2] was “did not exert any effect”.
